Data: the supplement of paper PMC8617591

Experiments:
[1] = system: Mycobacterium tuberculosis Erdman (autoluminescent); assay: FIC90 (Loewe) at 90% inhibition (log2); higher = more antagonistic
Description: (§1)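 DiaMOND equipotent two-drug combination dose responses against autoluminescent M. tuberculosis Erdman in 8 in vitro models. Read-out is OD600, or luminescence for the intracellular and dormancy models, normalised to untreated wells. Hill-fit Einf, AUC25 and GRinf are potency metrics; FIC50 and FIC90 are Loewe-additivity fractional inhibitory concentrations, given as log2 (negative = synergy). Replicates are averaged.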

[2] = system: Mycobacterium tuberculosis Erdman (autoluminescent); assay: FIC50 (Loewe) at 50% inhibition (log2); higher = more antagonistic
Description: as §1

[3] = system: Mycobacterium tuberculosis Erdman (autoluminescent); assay: Einf, fitted maximum growth inhibition of combination (fraction); higher = stronger maximal inhibition
Description: as §1

[4] = system: Mycobacterium tuberculosis Erdman (autoluminescent); assay: AUC25, normalised area under dose response up to IC25 (fraction (0-1)); higher = more potent at low dose
Description: as §1

[5] = system: Mycobacterium tuberculosis Erdman (autoluminescent); assay: GRinf, maximum normalised growth rate inhibition (unitless (-1 to 1)); higher = less effect (negative = killing)
Description: as §1

NNC(=O)c1ccncc1 [isoniazid] + CO[C@H]1/C=C/O[C@@]2(C)Oc3c(C)c(O)c4c(O)c(c(/C=N/N5CCN(C6CCCC6)CC5)c(O)c4c3C2=O)NC(=O)/C(C)=C\C=C\[C@H](C)[C@H](O)[C@@H](C)[C@@H](O)[C@@H](C)[C@H](OC(C)=O)[C@@H]1C [rifapentine]
Settings | AUC25, [4] | Einf, [3] | FIC50, [2] | FIC90, [1] | GRinf, [5]
in vitro model: acidic pH 5.7, time point: constant (~7 days, model-specific) | 0.0483 | 0.894 | 0.277 | – | -0.237
in vitro model: acidic pH 5.7, time point: terminal (~4-5 doublings, model-specific) | 0.0378 | 0.987 | 0.368 | 0.117 | -0.277
in vitro model: intracellular J774, time point: constant = terminal | – | 0.935 | – | -0.279 | -0.145

Settings | AUC25, [4] | Einf, [3] | FIC50, [2] | FIC90, [1] | GRinf, [5]
in vitro model: butyrate, time point: constant (~7 days, model-specific) | 0.0724 | 0.903 | 0.471 | -0.186 | 0.0346
in vitro model: butyrate, time point: terminal (~4-5 doublings, model-specific) | 0.0522 | 0.951 | 0.425 | 0.159 | 0.0382
in vitro model: cholesterol 0.05 mM, time point: constant (~7 days, model-specific) | 0.0889 | 0.673 | 0.00942 | – | -0.0811
in vitro model: cholesterol 0.05 mM, time point: terminal (~4-5 doublings, model-specific) | 0.0939 | 0.917 | 0.122 | 1.12 | -0.127
in vitro model: cholesterol-high 0.2 mM, time point: constant (~7 days, model-specific) | 0.0721 | 0.937 | 0.338 | – | -0.348
in vitro model: cholesterol-high 0.2 mM, time point: terminal (~4-5 doublings, model-specific) | 0.0611 | 0.998 | 0.562 | 0.57 | -0.717
in vitro model: dormancy (butyrate + nitrate, low O2), time point: constant (~7 days, model-specific) | 0.0529 | 0.926 | 0.188 | -0.294 | 0.144
in vitro model: dormancy (butyrate + nitrate, low O2), time point: terminal (~4-5 doublings, model-specific) | 0.0384 | 0.985 | -0.00795 | -0.177 | -0.174
in vitro model: standard 7H9 glycerol, time point: constant = terminal | 0.0391 | 0.905 | 0.622 | 0.354 | 0.117
in vitro model: valerate, time point: constant (~7 days, model-specific) | 0.034 | 0.752 | 0.888 | – | 0.146
in vitro model: valerate, time point: terminal (~4-5 doublings, model-specific) | 0.0276 | 0.928 | 1 | 1.18 | -0.00496

NNC(=O)c1ccncc1 [isoniazid] + CO[C@H]1/C=C/O[C@@]2(C)Oc3c(C)c(O)c4c(O)c(c(/C=N/N5CCN(C)CC5)c(O)c4c3C2=O)NC(=O)/C(C)=C\C=C\[C@H](C)[C@H](O)[C@@H](C)[C@@H](O)[C@@H](C)[C@H](OC(C)=O)[C@@H]1C [rifampicin]
Settings | AUC25, [4] | Einf, [3] | FIC50, [2] | FIC90, [1] | GRinf, [5]
in vitro model: acidic pH 5.7, time point: constant (~7 days, model-specific) | 0.0799 | 0.91 | 0.156 | – | -0.381
in vitro model: acidic pH 5.7, time point: terminal (~4-5 doublings, model-specific) | 0.0614 | 0.99 | 0.263 | 0.0584 | -0.3
in vitro model: intracellular J774, time point: constant = terminal | – | 0.966 | – | -0.336 | -0.212

Settings | AUC25, [4] | Einf, [3] | FIC50, [2] | FIC90, [1] | GRinf, [5]
in vitro model: butyrate, time point: constant (~7 days, model-specific) | 0.1 | 0.932 | 0.279 | 0.359 | -0.0416
in vitro model: butyrate, time point: terminal (~4-5 doublings, model-specific) | 0.0861 | 0.973 | 0.0238 | 0.0846 | -0.0152
in vitro model: cholesterol 0.05 mM, time point: constant (~7 days, model-specific) | 0.107 | 0.655 | 0.41 | – | 0.0341
in vitro model: cholesterol 0.05 mM, time point: terminal (~4-5 doublings, model-specific) | 0.0769 | 0.897 | 0.0977 | 0.49 | -0.0891
in vitro model: cholesterol-high 0.2 mM, time point: constant (~7 days, model-specific) | 0.0535 | 0.91 | -0.107 | – | -0.249
in vitro model: cholesterol-high 0.2 mM, time point: terminal (~4-5 doublings, model-specific) | 0.0593 | 1 | 0.355 | 0.101 | -0.696
in vitro model: dormancy (butyrate + nitrate, low O2), time point: constant (~7 days, model-specific) | 0.0607 | 0.931 | -0.181 | -1.07 | 0.104
in vitro model: dormancy (butyrate + nitrate, low O2), time point: terminal (~4-5 doublings, model-specific) | 0.0631 | 0.989 | -0.539 | -0.256 | -0.205
in vitro model: standard 7H9 glycerol, time point: constant = terminal | 0.0779 | 0.914 | 0.445 | -0.093 | 0.103
in vitro model: valerate, time point: constant (~7 days, model-specific) | 0.0388 | 0.866 | 0.511 | – | 0.0415
in vitro model: valerate, time point: terminal (~4-5 doublings, model-specific) | 0.0262 | 0.943 | 0.396 | 0.119 | 0.032
